By IC50 is commonly meant the concentration that gives 50% inhibition. Higher therefore signals weaker potency.

Experiment [1] concerns the target T1, cGMP-inhibited 3',5'-cyclic phosphodiesterase 3A [388-1112] (Homo sapiens, UniProt Q14432).
T1 construct: 388-1112
Kind of experiment: PDE SPA Enzyme Inhibition Assay. How it is done: (§1) PDE activity was monitored by measuring the hydrolysis of [3H]-cAMP to [3H]-AMP using scintillation proximity assay (SPA). [3H]-AMP was captured by the SPA beads, and quantified on a TopCount plate reader. Data was analyzed in Graph Pad Prism software.

Experiment [2] has as its target T2, cGMP-inhibited 3',5'-cyclic phosphodiesterase 3B [387-1112] (Homo sapiens, UniProt Q13370).
T2 construct: 387-1112
Kind of experiment: PDE SPA Enzyme Inhibition Assay. As for the experimental part:
as §1

The structures appear in SMILES notation.

T2 sequence (Q13370 387-1112): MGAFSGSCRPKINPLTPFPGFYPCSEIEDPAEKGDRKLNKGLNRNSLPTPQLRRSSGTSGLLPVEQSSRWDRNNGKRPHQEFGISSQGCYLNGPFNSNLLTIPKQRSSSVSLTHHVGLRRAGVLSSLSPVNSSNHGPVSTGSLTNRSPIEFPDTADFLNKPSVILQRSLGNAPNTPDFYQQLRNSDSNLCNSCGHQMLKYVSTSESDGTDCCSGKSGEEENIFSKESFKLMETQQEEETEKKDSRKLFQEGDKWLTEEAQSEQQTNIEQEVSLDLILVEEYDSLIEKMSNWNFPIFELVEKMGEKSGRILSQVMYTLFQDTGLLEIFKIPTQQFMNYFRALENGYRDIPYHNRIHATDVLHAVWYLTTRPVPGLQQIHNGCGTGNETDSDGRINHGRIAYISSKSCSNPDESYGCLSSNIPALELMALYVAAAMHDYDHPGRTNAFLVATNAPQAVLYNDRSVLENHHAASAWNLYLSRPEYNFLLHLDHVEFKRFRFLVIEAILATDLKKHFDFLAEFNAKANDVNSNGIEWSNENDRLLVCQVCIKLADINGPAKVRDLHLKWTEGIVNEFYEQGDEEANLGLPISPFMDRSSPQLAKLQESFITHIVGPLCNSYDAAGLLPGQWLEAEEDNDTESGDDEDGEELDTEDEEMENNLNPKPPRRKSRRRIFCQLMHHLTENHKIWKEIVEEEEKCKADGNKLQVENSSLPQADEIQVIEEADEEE
T1 sequence (Q14432 388-1112): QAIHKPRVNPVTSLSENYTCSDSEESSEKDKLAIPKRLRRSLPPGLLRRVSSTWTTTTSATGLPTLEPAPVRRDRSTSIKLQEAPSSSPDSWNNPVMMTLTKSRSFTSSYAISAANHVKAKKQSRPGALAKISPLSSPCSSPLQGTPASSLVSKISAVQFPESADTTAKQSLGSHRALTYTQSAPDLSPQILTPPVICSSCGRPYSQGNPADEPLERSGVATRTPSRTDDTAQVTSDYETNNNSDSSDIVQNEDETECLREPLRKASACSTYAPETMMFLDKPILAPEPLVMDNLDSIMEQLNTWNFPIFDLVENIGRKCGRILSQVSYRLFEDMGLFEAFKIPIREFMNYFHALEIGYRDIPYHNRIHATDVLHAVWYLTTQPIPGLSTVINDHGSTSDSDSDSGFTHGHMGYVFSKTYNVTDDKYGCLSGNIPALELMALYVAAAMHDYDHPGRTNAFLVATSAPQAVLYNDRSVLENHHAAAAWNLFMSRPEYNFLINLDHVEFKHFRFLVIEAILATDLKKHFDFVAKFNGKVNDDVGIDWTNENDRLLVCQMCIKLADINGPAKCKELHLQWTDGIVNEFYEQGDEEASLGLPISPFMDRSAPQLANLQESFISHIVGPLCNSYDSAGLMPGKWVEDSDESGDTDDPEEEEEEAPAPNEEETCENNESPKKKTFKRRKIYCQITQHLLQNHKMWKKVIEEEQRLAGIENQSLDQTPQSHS

Regarding `CC1(C)C(=O)NN=C1c1ccc(NC2=C(Cc3cccc(C#N)c3)C(=O)CCC2)c(F)c1F` [3-[(2-{[4-(4,4-dimethyl-5-oxo-4,5-dihydro-1H-pyrazol-3-yl)-2,3-difluorophenyl]amino}-6-oxocyclohex-1-en-1-yl)methyl]benzonitrile], the IC50 in experiment [1] is 7.6 nM; in experiment [2] it was 0.33 nM.

`CC1CC(=O)NN=C1c1ccc(NC2=C(Cc3ccccc3)C(=O)CCC2)c(F)c1` (stereo not given) [6-{4-[(2-benzyl-3-oxocyclohex-1-en-1-yl)amino]-3-fluorophenyl}-5-methyl-2,3,4,5-tetrahydropyridazin-3-one]: the IC50 in experiment [1] is 1.2 nM; in experiment [2] it was 0.26 nM.

`Cc1cc(C2=NNC(=O)CC2C)ccc1NC1=C(Cc2ccccc2)C(=O)CCC1` (stereo not given) [6-{4-[(2-benzyl-3-oxocyclohex-1-en-1-yl)amino]-3-methylphenyl}-5-methyl-2,3,4,5-tetrahydropyridazin-3-one]: the IC50 in experiment [1] stood at 3.7 nM; in experiment [2] it was 0.61 nM.

`C[C@@H]1CC(=O)NN=C1c1ccc(NC2=C(Cc3cccc(-c4cccc([N+](=O)[O-])c4)c3)C(=O)CCC2)cc1` [(5R)-5-methyl-6-{4-[(2-{[3-(3-nitrophenyl)phenyl]methyl}-3-oxocyclohex-1-en-1-yl)amino]phenyl}-2,3,4,5-tetrahydropyridazin-3-one]: the IC50 in experiment [1] turned out to be 0.11 nM; in experiment [2] (pH 7.5, 22 °C), 0.049 nM.

For the molecule `C[C@@H]1CC(=O)NN=C1c1ccc(NC2=C(Cc3cccc(-c4ccsc4)c3)C(=O)CCC2)cc1` [(5R)-5-methyl-6-{4-[(3-oxo-2-{[3-(thiophen-3-yl)phenyl]methyl}cyclohex-1-en-1-yl)amino]phenyl}-2,3,4,5-tetrahydropyridazin-3-one], the IC50 is 0.11 nM in experiment [1] and 0.068 nM in experiment [2] (pH 7.5, 22 °C).
